The results in this text go back to PubChem BioAssay (NCI).

Values joined by “and” are separate entries in the source; they are usually repeats but may differ in a detail not shown here. Identical values can stand only once.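 These data come from cells grown in 96-well plates and exposed to compound for 48 hours at five concentrations. GI50 marks 50% less growth. TGI marks complete inhibition of growth.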

Assay in all cases: DTP human tumour cell line panel, 48 h
Experiment [1] has as its system RPMI-8226 leukemia.
For experiment [2], the system named is A549 NSCLC.
Experiment [3] concerns SF-268 CNS.
The test system of experiment [4] is NCI-H23 lung.
Experiment [5] relates to BT-549 breast.
For experiment [6], the system named is HOP-92 NSCLC.
Experiment [7] has as its system SNB-75 CNS.
For experiment [8], the system named is OVCAR-8 ovarian.
Experiment [9] deals with UACC-62 melanoma.
The test system of experiment [10] is TK-10 renal.

For orientation: GI50 means the concentration at which growth is held to half of that of the control. What is called TGI is the concentration giving total growth inhibition. Read a high TGI as lower sensitivity of the cells. `COC(=O)[C@H](Cc1cn(C)cn1)NC(=O)[C@H](C)NC(=O)Nc1cc(C(F)(F)F)cc(C(F)(F)F)c1`: the GI50 in [1] was more than 10000 nM; in experiment [2], more than 10000 nM; in experiment [3], more than 10 µM; in experiment [4], more than 10 µM; in experiment [5] it was more than 10 µM; in experiment [6], more than 10000 nM. Besides, the GI50 was more than 10000 nM in experiment [7], more than 10 µM in [8], more than 10000 nM in experiment [9] and more than 10 µM in experiment [10]. The TGI in experiment [1], in experiment [2], in [3], in [4], in experiment [5] and in experiment [6] was more than 10 µM throughout. The TGI in experiment [7], in experiment [8], in experiment [9] and in experiment [10] was more than 10 µM in each case.

Regarding `C=Cn1c([N+](=O)[O-])cnc1/C=C/c1ccc(C(=O)OCCN2CCOCC2)cc1`, the TGI in experiment [1] is 78.4 µM; in [2], more than 100 µM; in experiment [3], more than 100 µM; in [4], more than 100 µM; in experiment [5], more than 100 µM; in [6], more than 100 µM. The TGI in experiment [7], in experiment [8], in experiment [9] and in experiment [10] was more than 100 µM in each case.

Turning to `CCC(C)C(=O)OCC(=O)c1ccc(-c2ccccc2)cc1` (centres undefined), the TGI was 71.5 µM in experiment [1]; more than 100 µM in experiment [2]; more than 100 µM in experiment [3]; more than 100 µM in [4]; more than 100 µM in experiment [5]; more than 100 µM in experiment [6]. Besides, the TGI in experiment [7], in experiment [8], in experiment [9] and in experiment [10] was more than 100 µM throughout.

Consider `CCc1nc(N)nc(N)c1-c1ccc(Cl)c(N=[N+]=[N-])c1`, for which the TGI is 39.2 µM and 52.1 µM in [1]; more than 100 µM in experiment [2]; more than 100 µM in experiment [3]; > 93.8 µM and 80.9 µM in experiment [4]; 48.8 µM and 77.7 µM in experiment [5]; > 90.7 µM and 68.2 µM in experiment [6]. Further, the total growth inhibition concentration (TGI) in experiment [7] was more than 87.3 µM; in experiment [8], more than 100 µM; in experiment [9], 24.8 µM and 26.8 µM; in [10], more than 100 µM. Moreover, the GI50 is 580 nM and 1680 nM in experiment [2]; 6.14 µM and 15.2 µM in experiment [5]; 15.4 µM and 4.79 µM in [8]; 780 nM and 3130 nM in [9]; 8.78 µM and 29.3 µM in experiment [10].

As for `CCCCOC1OC(COC(=O)C(C)C)C(OC(=O)C(C)C)C(O)C1OC1OC(C)C(OC(=O)CCC)C(OC(=O)C(C)C)C1O` (centres undefined), the GI50 is 2270 nM in [1]; 13600 nM in [2]; 12.2 µM in [3]; 14 µM in [4]; 22.1 µM in experiment [5]; 13200 nM in [6]. Also, the GI50 was 17600 nM in [7], 19.6 µM in experiment [8], 12300 nM in experiment [9] and 13.2 µM in experiment [10]. Further, the concentration for total growth inhibition (TGI) amounted to 8.95 µM in experiment [1]; 26.5 µM in experiment [2]; 29 µM in experiment [3]; 27 µM in [4]; 37.7 µM in [5]; 25.9 µM in [6]. The TGI was determined as 31.4 µM in [7], 37.8 µM in experiment [8], 24.8 µM in [9] and 25.9 µM in experiment [10].

For `COc1ccc2c(c1)-c1nn(CCCN(C)C)c3ccc([N+](=O)[O-])c(c13)N2`, the total growth inhibition concentration (TGI) in experiment [1] is 25.5 µM; in experiment [2] it was 2.51 µM and 2.28 µM; in experiment [3] it was 6.12 µM and 6.94 µM; in experiment [4] it was 2.08 µM and 2.3 µM; in experiment [5], 7.19 µM; in [6], 1.77 µM and 4.97 µM. Moreover, the TGI in experiment [7] is 1.02 µM and 3.85 µM; in experiment [8], 4.19 µM and 5.06 µM; in experiment [9], 2.44 µM and 5.2 µM; in experiment [10], 4.69 µM and 7.86 µM. Further, the GI50 was 164 nM and 368 nM in experiment [2]; 192 nM and 764 nM in experiment [6]; 197 nM and 573 nM in experiment [7]; 314 nM and 934 nM in experiment [9]; 0.345 µM and 0.809 µM in experiment [10].

`Cc1cc(Cl)ccc1C(=O)c1ccc2ccccc2c1C(=O)O`: the TGI in experiment [1], in [2], in experiment [3], in experiment [4], in [5] and in experiment [6] was more than 100 µM each time. Moreover, the TGI in experiment [7], in experiment [8], in experiment [9] and in experiment [10] was more than 100 µM throughout.

Regarding `COc1cc2c(c(OC)c1OC)-c1ccc(N=NC(N)=S)c(=O)cc1[C@@H](NC(C)=O)CC2`, the GI50 in experiment [1] is 708 nM; in experiment [2] it was 3630 nM; in experiment [3] it was 0.716 µM; in [4], 0.347 µM; in [5] it was 0.624 µM; in experiment [6] it was 1970 nM. Also, the 50% growth inhibitory concentration (GI50) in [7] was 256 nM; in [8], 2.19 µM; in experiment [9], 646 nM; in [10], 9.01 µM. The TGI in [1] was more than 100 µM; in experiment [2], more than 100 µM; in experiment [3] it was more than 100 µM; in experiment [4], more than 100 µM; in [5] it was more than 100 µM; in experiment [6], 98.8 µM. Moreover, the TGI in experiment [8], in [9] and in experiment [10] was more than 100 µM each time.

Consider `O=C(CCCN1CCC(C(O)c2ccc(F)cc2)CC1)c1ccc(F)cc1` (centres undefined), for which the total growth inhibition concentration (TGI) in experiment [1] turned out to be 168 µM; in experiment [2], 123 µM; in experiment [3], 122 µM; in [4], 134 µM; in experiment [5], 93 µM; in [6] it was 60.4 µM. For the same compound, the total growth inhibition concentration (TGI) in experiment [7] was determined as 98.5 µM; in experiment [8] it was 125 µM; in experiment [9], 114 µM; in experiment [10], 86.8 µM.

Take `O=C1CC/C(=C/COc2cc(=O)oc3ccccc23)O1`: the GI50 in [1] is 2020 nM; in experiment [2] it was 16400 nM; in [3] it was 16.2 µM; in experiment [4] it was 12.8 µM; in experiment [5] it was 11.5 µM; in experiment [6] it was 10500 nM. The GI50 is 1580 nM in experiment [7], 11.7 µM in experiment [8], 12200 nM in experiment [9] and 2.73 µM in experiment [10]. The TGI in [1] is 8.07 µM; in experiment [2], 30.8 µM; in [3], 51.7 µM; in experiment [4], 26.8 µM; in experiment [5], 24.7 µM; in experiment [6], 26.9 µM. Moreover, the TGI amounted to 11.8 µM in [7], 27.7 µM in [8], 25.1 µM in experiment [9] and 10.5 µM in experiment [10].
